Each structure is given as a SMILES string. Positions of bridges follow the written chain, without caps; N, C: chain ends. Non-standard residues stand in square brackets, D forms with d. Residues, ends and D or L forms follow the SMILES beside them. Thz = O=C(O)[C@@H]1CSCN1

For this experiment, the target named is T1, human MC4R (Homo sapiens, UniProt P32245).
T1 construct: expressed in transfected cells
The experiment is described as follows: Functional cAMP assay (CisBio HTRF) in BHK cells expressing human MC4R. It counts as cell-based. The method, boiled down:
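Stably transfected BHK cells expressing human MC1R or MC4R; cAMP quantified by HTRF (cAMP-d2/cryptate) after 30 min compound stimulation at 25 °C in DMEM-based buffer with 1 mM IBMX. Compounds were prepared as 10-fold serial dilutions starting at 2 μM (working solution, 2× final). Readout after 1 h at 25 °C; non-linear regression.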

T1 sequence (P32245 whole entry): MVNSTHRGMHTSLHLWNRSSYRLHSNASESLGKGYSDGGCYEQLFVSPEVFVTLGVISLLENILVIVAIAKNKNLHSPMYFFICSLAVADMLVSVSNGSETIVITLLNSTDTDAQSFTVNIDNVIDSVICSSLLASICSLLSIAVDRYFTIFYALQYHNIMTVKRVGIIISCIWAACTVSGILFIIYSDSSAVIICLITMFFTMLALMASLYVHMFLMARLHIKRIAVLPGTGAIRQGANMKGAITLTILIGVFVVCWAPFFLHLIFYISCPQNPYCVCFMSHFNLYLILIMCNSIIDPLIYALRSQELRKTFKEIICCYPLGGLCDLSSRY

On to `C[C@@H]1NC(=O)[C@H](CCCCN)NC(=O)[C@@H]2CSSC[C@H](NC(=O)[C@H](Cc3c[nH]c4ccccc34)NC(=O)[C@H](C)NC(=O)[C@@H](CCCCN)NC1=O)C(=O)N1CSC[C@H]1C(=O)N[C@@H](Cc1c[nH]cn1)C(=O)N[C@H](Cc1ccccc1)C(=O)N[C@@H](Cc1c[nH]cn1)C(=O)N[C@@H](Cc1c[nH]c3ccccc13)C(=O)N2` [Chem. 114, c[c[Cys-THAZ-His-D-Phe-His-Trp- Cys]-Lys-Ala-D-Lys-Ala-Trp]] (cyclo(AWC[Thz]H[dF]HWCKA[dK]); disulfide 3-9), for which, where the note is “BHK cells expressing human MC4R, '>' = highest dose used with no response, read-out: MC4R cAMP EC50”, the EC50 worked out at 0.04 nM. Also, the “MC1R/MC4R cAMP EC50 ratio” value (MC1R cAMP EC50 divided by MC4R cAMP EC50) is 2844.

By EC50 is commonly meant the concentration giving half of the maximal effect.
